Laboratory results published in ChEMBL document CHEMBL5120887, “Hybrid Diterpenic Meroterpenoids from an Endophytic Penicillium sp. Induced by Chemical Epigenetic Manipulation” (J Nat Prod, 2022).

Target: Acetylcholinesterase (Homo sapiens, UniProt P22303)
Assay: Inhibition of AChE in human Erythrocyte incubated for 20 mins by Ellman reagent based spectrophotometry
Type: cell-based

Sequence of Acetylcholinesterase (P22303 whole entry): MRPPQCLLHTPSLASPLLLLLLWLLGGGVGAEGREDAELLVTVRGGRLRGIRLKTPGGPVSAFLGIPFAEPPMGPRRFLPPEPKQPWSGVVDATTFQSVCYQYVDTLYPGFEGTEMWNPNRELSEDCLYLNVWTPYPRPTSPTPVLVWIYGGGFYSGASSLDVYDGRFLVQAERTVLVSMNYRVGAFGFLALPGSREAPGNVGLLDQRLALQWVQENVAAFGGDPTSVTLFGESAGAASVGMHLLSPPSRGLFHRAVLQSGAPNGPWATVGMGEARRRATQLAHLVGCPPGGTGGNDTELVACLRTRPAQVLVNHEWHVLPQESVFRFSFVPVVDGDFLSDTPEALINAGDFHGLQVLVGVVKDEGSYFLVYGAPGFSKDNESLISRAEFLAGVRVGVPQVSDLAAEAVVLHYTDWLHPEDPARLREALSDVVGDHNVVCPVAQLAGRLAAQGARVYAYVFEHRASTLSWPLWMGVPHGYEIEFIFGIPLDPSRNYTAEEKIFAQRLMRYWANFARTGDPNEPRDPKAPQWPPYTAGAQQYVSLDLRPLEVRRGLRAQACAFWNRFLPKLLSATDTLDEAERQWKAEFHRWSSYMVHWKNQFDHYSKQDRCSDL

In the case of `C=C(C)[C@]1(O)CC[C@@]2(C)C3=Cc4c(cc(-c5cccnc5)oc4=O)O[C@]3(C)[C@@H](O)C[C@@H]2[C@@]12CCC(=O)OC2`, the IC50 is reported as 13.9 µM.
